Tests used:
Experiment in all cases: cells
D-392MG = format: functional, cell-based, Homo sapiens; conditions: d-392mg
DJM-1 = format: functional, cell-based, Homo sapiens; conditions: djm-1;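 note: growth inhibition of human DJM-1 cells, read out by a cell viability assay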
Description: SANGER: Inhibition of human DJM-1 cell growth in a cell viability assay.

EKVX = format: functional, cell-based, Homo sapiens; conditions: ekvx;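 note: growth inhibition of human EKVX cells, read out with a cell viability assay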
Description: SANGER: Inhibition of human EKVX cell growth in a cell viability assay.

ES4 = format: functional, cell-based, Homo sapiens; conditions: es4;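 note: growth inhibition of human ES4 cells, read out by a cell viability assay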
Description: SANGER: Inhibition of human ES4 cell growth in a cell viability assay.

ES5 = format: functional, cell-based, Homo sapiens; conditions: es5;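 note: growth inhibition of human ES5 cells, read out by a cell viability assay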
Description: SANGER: Inhibition of human ES5 cell growth in a cell viability assay.

ES7 = format: functional, cell-based, Homo sapiens; conditions: es7;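 note: growth inhibition of cultured human ES7 cells, read out as cell viability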
Description: SANGER: Inhibition of human ES7 cell growth in a cell viability assay.

ETK-1 = format: functional, cell-based, Homo sapiens; conditions: etk-1;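 note: growth inhibition of human ETK-1 cells, read out with a cell viability assay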
Description: SANGER: Inhibition of human ETK-1 cell growth in a cell viability assay.

EW-11 = format: functional, cell-based, Homo sapiens; conditions: ew-11;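 note: growth inhibition of human EW-11 cells, measured with a cell viability assay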
Description: SANGER: Inhibition of human EW-11 cell growth in a cell viability assay.

GAK = format: functional, cell-based, Homo sapiens; conditions: gak;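 note: cell growth inhibition read out by a cell viability assay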
Description: SANGER: Inhibition of human GAK cell growth in a cell viability assay.

HAL-01 = format: functional, cell-based, Homo sapiens; conditions: hal-01;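 note: growth inhibition of human HAL-01 cells, read out with a cell viability assay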
Description: SANGER: Inhibition of human HAL-01 cell growth in a cell viability assay.

HC-1 = format: functional, cell-based, Homo sapiens; conditions: hc-1;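 note: growth inhibition of HC-1 cells measured by a cell viability assay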
Description: SANGER: Inhibition of human HC-1 cell growth in a cell viability assay.

HD-MY-Z = format: functional, cell-based, Homo sapiens; conditions: hd-my-z;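 note: growth inhibition of HD-MY-Z cells, read out with a cell viability assay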
Description: SANGER: Inhibition of human HD-MY-Z cell growth in a cell viability assay.

HL-60 = format: functional, cell-based, Homo sapiens; conditions: hl-60;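 note: growth inhibition of human HL-60 cells, read out with a cell viability assay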
Description: SANGER: Inhibition of human HL-60 cell growth in a cell viability assay.

IST-SL1 = format: functional, cell-based, Homo sapiens; conditions: ist-sl1;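 note: growth inhibition of human IST-SL1 cells, read out with a cell viability assay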
Description: SANGER: Inhibition of human IST-SL1 cell growth in a cell viability assay.

L-363 = format: functional, cell-based, Homo sapiens; conditions: l-363
Description: SANGER: Inhibition of human L-363 cell growth in a cell viability assay.

LB2241-RCC = format: functional, cell-based, Homo sapiens; conditions: lb2241-rcc;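 note: cell viability assay measuring how strongly the cultured human renal carcinoma line is prevented from growing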
Description: SANGER: Inhibition of human LB2241-RCC cell growth in a cell viability assay.

LB771-HNC = format: functional, cell-based, Homo sapiens; conditions: lb771-hnc;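 note: growth inhibition of LB771-HNC human cells, read out with a cell viability assay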
Description: SANGER: Inhibition of human LB771-HNC cell growth in a cell viability assay.

LB831-BLC = format: functional, cell-based, Homo sapiens; conditions: lb831-blc;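 note: growth inhibition of LB831-BLC cells, read out with a cell viability assay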
Description: SANGER: Inhibition of human LB831-BLC cell growth in a cell viability assay.

LS-1034 = format: functional, cell-based, Homo sapiens; conditions: ls-1034
Description: SANGER: Inhibition of human LS-1034 cell growth in a cell viability assay.

MEG-01 = format: functional, cell-based, Homo sapiens; conditions: meg-01;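 note: growth inhibition of MEG-01 cells, read out by a cell viability assay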
Description: SANGER: Inhibition of human MEG-01 cell growth in a cell viability assay.

MFM-223 = format: functional, cell-based, Homo sapiens; conditions: mfm-223
Description: SANGER: Inhibition of human MFM-223 cell growth in a cell viability assay.

MHH-PREB-1 = format: functional, cell-based, Homo sapiens; conditions: mhh-preb-1;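 note: cell viability assay measuring inhibition of proliferation of human MHH-PREB-1 cells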
Description: SANGER: Inhibition of human MHH-PREB-1 cell growth in a cell viability assay.

MOLT-16 = format: functional, cell-based, Homo sapiens; conditions: molt-16;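 note: growth inhibition of human MOLT-16 cells, read out with a cell viability assay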
Description: SANGER: Inhibition of human MOLT-16 cell growth in a cell viability assay.

MOLT-4 = format: functional, cell-based, Homo sapiens; conditions: molt-4;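 note: growth inhibition of MOLT-4 cells, determined with a cell viability readout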
Description: SANGER: Inhibition of human MOLT-4 cell growth in a cell viability assay.

MZ7-mel = format: functional, cell-based, Homo sapiens; conditions: mz7-mel;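 note: growth inhibition of human MZ7-mel cells, measured by a cell viability assay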
Description: SANGER: Inhibition of human MZ7-mel cell growth in a cell viability assay.

Mo = format: functional, cell-based, Homo sapiens; conditions: mo
Description: SANGER: Inhibition of human Mo-T cell growth in a cell viability assay.

NB12 = format: functional, cell-based, Homo sapiens; conditions: nb12;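 note: growth inhibition of human NB12 cells, read out by a cell viability assay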
Description: SANGER: Inhibition of human NB12 cell growth in a cell viability assay.

NB6 = format: functional, cell-based, Homo sapiens; conditions: nb6
Description: SANGER: Inhibition of human NB6 cell growth in a cell viability assay.

NB69 = format: functional, cell-based, Homo sapiens; conditions: nb69;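 note: growth inhibition of NB69 cells, determined by a cell viability assay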
Description: SANGER: Inhibition of human NB69 cell growth in a cell viability assay.

NCI-H1838 = format: functional, cell-based, Homo sapiens; conditions: nci-h1838;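 note: growth inhibition of NCI-H1838 cells, determined with a cell viability readout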
Description: SANGER: Inhibition of human NCI-H1838 cell growth in a cell viability assay.

NCI-H446 = format: functional, cell-based, Homo sapiens; conditions: nci-h446;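 note: growth inhibition of NCI-H446 cells determined by a cell viability assay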
Description: SANGER: Inhibition of human NCI-H446 cell growth in a cell viability assay.

NKM-1 = format: functional, cell-based, Homo sapiens; conditions: nkm-1;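 note: growth inhibition of NKM-1 cells, read out with a cell viability assay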
Description: SANGER: Inhibition of human NKM-1 cell growth in a cell viability assay.

NOS-1 = format: functional, cell-based, Homo sapiens; conditions: nos-1;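 note: growth inhibition of the human NOS-1 cell line, read out with a cell viability assay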
Description: SANGER: Inhibition of human NOS-1 cell growth in a cell viability assay.

P30-OHK = format: functional, cell-based, Homo sapiens; conditions: p30-ohk;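 note: growth inhibition of the P30-OHK cell line, read out with a cell viability assay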
Description: SANGER: Inhibition of human P30-OHK cell growth in a cell viability assay.

RCC10RGB = format: functional, cell-based, Homo sapiens; conditions: rcc10rgb;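 note: growth inhibition of human RCC10RGB cells, read out by a cell viability assay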
Description: SANGER: Inhibition of human RCC10RGB cell growth in a cell viability assay.

SCC-15 = format: functional, cell-based, Homo sapiens; conditions: scc-15;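 note: growth inhibition of SCC-15 cells, read out with a cell viability assay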
Description: SANGER: Inhibition of human SCC-15 cell growth in a cell viability assay.

SF-268 = format: functional, cell-based, Homo sapiens; conditions: sf-268;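 note: growth inhibition of SF-268 cells determined with a cell viability assay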
Description: SANGER: Inhibition of human SF268 cell growth in a cell viability assay.

SH-4 = format: functional, cell-based, Homo sapiens; conditions: sh-4;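 note: growth inhibition of SH-4 cells, read out with a cell viability assay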
Description: SANGER: Inhibition of human SH-4 cell growth in a cell viability assay.

SNB-75 = format: functional, cell-based, Homo sapiens; conditions: snb-75;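 note: cell viability assay measuring growth inhibition of human SNB-75 cells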
Description: SANGER: Inhibition of human SNB75 cell growth in a cell viability assay.

SW872 = format: functional, cell-based, Homo sapiens; conditions: sw872;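 note: growth inhibition of SW872 cells, read out by a viability assay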
Description: SANGER: Inhibition of human SW872 cell growth in a cell viability assay.

SW 962 = format: functional, cell-based, Homo sapiens; conditions: sw 962;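 note: growth inhibition of human SW962 cells, read out by a cell viability assay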
Description: SANGER: Inhibition of human SW962 cell growth in a cell viability assay.

SW982 = format: functional, cell-based, Homo sapiens; conditions: sw982;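 note: growth inhibition of SW982 cells, read out with a cell viability assay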
Description: SANGER: Inhibition of human SW982 cell growth in a cell viability assay.

697 = format: functional, cell-based, Homo sapiens
Description: SANGER: Inhibition of human 697 cell growth in a cell viability assay.

8-MG-BA = format: functional, cell-based, Homo sapiens; conditions: 8-mg-ba;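 note: growth inhibition of 8-MG-BA cells, read out with a cell viability assay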
Description: SANGER: Inhibition of human 8-MG-BA cell growth in a cell viability assay.

A4-Fuk = format: functional, cell-based, Homo sapiens; conditions: a4-fuk;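 note: growth inhibition of A4-Fuk cells, read out by a cell viability assay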
Description: SANGER: Inhibition of human A4-Fuk cell growth in a cell viability assay.

BV-173 = format: functional, cell-based, Homo sapiens; conditions: bv-173
Description: SANGER: Inhibition of human BV-173 cell growth in a cell viability assay.

TE-5 = format: functional, cell-based, Homo sapiens; conditions: te-5;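 note: inhibition of cell growth, read out by a cell viability assay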
Description: SANGER: Inhibition of human TE-5 cell growth in a cell viability assay.

TE-8 = format: functional, cell-based, Homo sapiens; conditions: te-8;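 note: growth inhibition of TE-8 cells, measured with a cell viability readout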
Description: SANGER: Inhibition of human TE-8 cell growth in a cell viability assay.

TGBC24TKB = format: functional, cell-based, Homo sapiens; conditions: tgbc24tkb;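 note: growth inhibition of human TGBC24TKB cells, read out with a cell viability assay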
Description: SANGER: Inhibition of human TGBC24TKB cell growth in a cell viability assay.

U-87 MG = format: functional, cell-based, Homo sapiens, U-87MG ATCC; conditions: u-87mg atcc;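 note: growth inhibition of the cells measured with a viability assay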
Description: SANGER: Inhibition of human U-87-MG cell growth in a cell viability assay.

BLEOMYCIN
IC50 (D-392MG): 13.6 µM
IC50 (DJM-1): 1.13 µM
IC50 (EKVX): 413 µM
IC50 (ES4): 0.0383 µM
IC50 (ES5): 0.505 µM
IC50 (ES7): 0.378 µM
IC50 (ETK-1): 0.0805 µM
IC50 (EW-11): 6.41 µM
IC50 (GAK): 126 µM
IC50 (HAL-01): 0.000453 µM
IC50 (HC-1): 0.993 µM
IC50 (HD-MY-Z): 0.56 µM
IC50 (HL-60): 35.3 µM
IC50 (IST-SL1): 54.6 µM
IC50 (L-363): 187 µM
IC50 (LB2241-RCC): 0.738 µM
IC50 (LB771-HNC): 209 µM
IC50 (LB831-BLC): 8.38 µM
IC50 (LS-1034): 35.4 µM
IC50 (MEG-01): 0.395 µM
IC50 (MFM-223): 11000 µM
IC50 (MHH-PREB-1): 836 µM
IC50 (MOLT-16): 29.5 µM
IC50 (MOLT-4): 1.77 µM
IC50 (MZ7-mel): 0.13 µM
IC50 (Mo): 103 µM
IC50 (NB12): 82.4 µM
IC50 (NB6): 430 µM
IC50 (NB69): 0.923 µM
IC50 (NCI-H1838): 24.5 µM
IC50 (NCI-H446): 18.9 µM
IC50 (NKM-1): 0.00765 µM
IC50 (NOS-1): 1.31 µM
IC50 (P30-OHK): 7.1 µM
IC50 (RCC10RGB): 70.6 µM
IC50 (SCC-15): 27.6 µM
IC50 (SF-268): 1.32 µM
IC50 (SH-4): 7.85 µM
IC50 (SNB-75): 1.61 µM
IC50 (SW872): 3.45 µM
IC50 (SW 962): 1.95 µM
IC50 (SW982): 0.417 µM
IC50 697: 1.58 µM
IC50 (8-MG-BA): 1.48 µM
IC50 (A4-Fuk): 25.3 µM
IC50 (BV-173): 0.855 µM
IC50 (TE-5): 7.96 µM
IC50 (TE-8): 0.377 µM
IC50 (TGBC24TKB): 204 µM
IC50 (U-87 MG): 11.1 µM

Reference: ChEMBL document CHEMBL1201861, “Genomics of Drug Sensitity in Cancer screening data, Wellcome Trust Sanger Institute”
